Values quoted from earlier work, collected in patent publication US20070112050A1, “HMGCoA reductase inhibitor combinations and uses thereof” (pSivida Inc., priority 2005, published 2007).
Read-outs that look alike come from different tables or passages of the source.

Columns and labels:
[1] = biological target: T1, HMGCoA reductase (HMGR) (Homo sapiens, UniProt P04035); conditions: substrate of HMGCoA reductase; read-out: Michaelis constant, Km
T1 sequence (P04035 1-888): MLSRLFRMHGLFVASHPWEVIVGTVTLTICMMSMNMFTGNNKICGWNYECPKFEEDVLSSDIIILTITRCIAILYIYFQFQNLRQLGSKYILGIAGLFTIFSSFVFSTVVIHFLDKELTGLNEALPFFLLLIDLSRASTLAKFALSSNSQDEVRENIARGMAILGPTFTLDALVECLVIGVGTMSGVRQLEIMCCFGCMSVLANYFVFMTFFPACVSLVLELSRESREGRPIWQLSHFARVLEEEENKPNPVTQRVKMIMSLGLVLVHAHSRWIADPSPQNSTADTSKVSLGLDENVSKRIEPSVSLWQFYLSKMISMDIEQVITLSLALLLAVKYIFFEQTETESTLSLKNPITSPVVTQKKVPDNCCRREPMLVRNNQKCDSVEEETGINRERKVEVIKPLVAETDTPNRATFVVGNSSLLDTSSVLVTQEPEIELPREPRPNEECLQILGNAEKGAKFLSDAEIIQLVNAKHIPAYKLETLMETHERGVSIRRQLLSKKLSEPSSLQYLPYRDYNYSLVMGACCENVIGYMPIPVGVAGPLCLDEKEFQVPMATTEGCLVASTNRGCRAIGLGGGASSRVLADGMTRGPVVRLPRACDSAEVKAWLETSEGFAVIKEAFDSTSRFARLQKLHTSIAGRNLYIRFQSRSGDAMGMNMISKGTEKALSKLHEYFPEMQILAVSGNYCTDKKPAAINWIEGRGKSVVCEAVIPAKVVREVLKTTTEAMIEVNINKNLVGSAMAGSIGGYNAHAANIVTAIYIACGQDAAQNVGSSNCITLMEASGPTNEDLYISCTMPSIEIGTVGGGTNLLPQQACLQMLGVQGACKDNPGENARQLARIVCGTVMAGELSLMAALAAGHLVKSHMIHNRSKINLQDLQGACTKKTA

[2] = tested on: low density lipoprotein cholesterol (LDL); conditions: ezetimibe administered alone

CCOc1nc2cccc(C(=O)O)c2n1Cc1ccc(-c2ccccc2-c2nnn[nH]2)cc1 [Candesartan, candesartan]
Half-life (human, in vivo): 10 h | Active metabolite (in vivo): Yes | Major route of inactivation (in vivo): Liver and renal

CC(C)(COP(=O)(O)OP(=O)(O)OC[C@H]1O[C@@H](n2cnc3c(N)ncnc32)[C@H](O)[C@@H]1OP(=O)(O)O)[C@@H](O)C(=O)NCCC(=O)NCCSC(=O)C[C@@](C)(O)CC(=O)O [HMGCoA, (S)-3-hydroxy-3-methylglutaryl-CoA]
Km [1]: 4 µM

CCCCC1=NC2(CCCC2)C(=O)N1Cc1ccc(-c2ccccc2-c2nnn[nH]2)cc1 [Irbesartan, irbesartan]
Active metabolite (human body): No | Half-life (human body): 13 h

CCCCc1nc(Cl)c(CO)n1Cc1ccc(-c2ccccc2-c2nn[nH]n2)cc1 [Losartan, losartan]
Half-life (human body): 5 h

CCCCC(=O)N(Cc1ccc(-c2ccccc2-c2nnn[nH]2)cc1)[C@H](C(=O)O)C(C)C [Valsartan, valsartan]
Half-life (human body): 6 h

O=C1[C@H](CC[C@H](O)c2ccc(F)cc2)[C@@H](c2ccc(O)cc2)N1c1ccc(F)cc1 [ezetimibe]
reduction of LDL [2]: 17%
